In the supplement of paper PMC10307832:

Legend:
Experiment in all cases: relative viability (nuclei count vs DMSO), 5 days (fraction); higher = more cells survive
[1] = compound: Cc1ccc2nc(NCCN)c3ncc(C)n3c2c1 + C[C@]1(O)C[C@@H](c2nc(-c3ccc4ccc(-c5ccccc5)nc4c3)c3c(N)nccn32)C1 [Linsitinib] (partner 1 µM)
Method in brief: (§1)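 Five library-drug doses in √10 steps were combined with a fixed anchor-drug dose, or a single drug was given alone, by pin tool to lung cancer cell lines in 1536-well plates the day after seeding. Nuclei were stained and counted after 5 days. Relative viability is the nuclei count in treated wells over that in vehicle wells, taken as the median of duplicate plates.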

Salubrinal + Dasatinib = compound: O=C(/C=C/c1ccccc1)NC(NC(=S)Nc1cccc2cccnc12)C(Cl)(Cl)Cl [Salubrinal] + Cc1nc(Nc2ncc(C(=O)Nc3c(C)cccc3Cl)s2)cc(N2CCN(CCO)CC2)n1 [Dasatinib] (partner 0.075 µM)
Method in brief: as §1

[2] = compound: Cc1ccc2nc(NCCN)c3ncc(C)n3c2c1 + CC(C)C[C@H](NC(=O)[C@H](Cc1ccccc1)NC(=O)c1cnccn1)B(O)O [Bortezomib] (partner 0.002 µM)
Method in brief: as §1

Salubrinal + Palbociclib = compound: O=C(/C=C/c1ccccc1)NC(NC(=S)Nc1cccc2cccnc12)C(Cl)(Cl)Cl [Salubrinal] + CC(=O)c1c(C)c2cnc(Nc3ccc(N4CCNCC4)cn3)nc2n(C2CCCC2)c1=O [Palbociclib] (partner 0.5 µM)
Method in brief: as §1

Row | Cell Line | relative viability ([1]; first compound 0.04 µM) | relative viability ([1]; first compound 0.1265 µM) | relative viability ([1]; first compound 0.4 µM) | relative viability ([1]; first compound 1.265 µM) | relative viability ([1]; first compound 4 µM) | relative viability (Salubrinal + Dasatinib; first compound 0.08 µM) | relative viability (Salubrinal + Dasatinib; first compound 0.253 µM) | relative viability (Salubrinal + Dasatinib; first compound 0.8 µM) | relative viability (Salubrinal + Dasatinib; first compound 2.53 µM) | relative viability (Salubrinal + Dasatinib; first compound 8 µM) | relative viability ([2]; first compound 0.04 µM) | relative viability ([2]; first compound 0.1265 µM) | relative viability ([2]; first compound 0.4 µM) | relative viability ([2]; first compound 1.265 µM) | relative viability ([2]; first compound 4 µM) | relative viability (Salubrinal + Palbociclib; first compound 0.08 µM) | relative viability (Salubrinal + Palbociclib; first compound 0.253 µM) | relative viability (Salubrinal + Palbociclib; first compound 0.8 µM) | relative viability (Salubrinal + Palbociclib; first compound 2.53 µM) | relative viability (Salubrinal + Palbociclib; first compound 8 µM)
1 | NCI-H1437 | 0.991 | 0.932 | 1.03 | 0.936 | 0.821 | 0.406 | 0.42 | 0.487 | 0.507 | 0.243 | 0.628 | 0.467 | 0.474 | 0.539 | 0.557 | 0.321 | 0.334 | 0.327 | 0.315 | 0.322
2 | NCI-H1651 | 0.982 | 0.837 | 0.982 | 0.928 | 0.795 | 0.487 | 0.259 | 0.452 | 0.393 | 0.35 | 0.966 | 0.954 | 1.07 | 0.972 | 0.676 | 0.561 | 0.479 | 0.564 | 0.513 | 0.508
3 | NCI-H1666 | 0.909 | 0.843 | 0.942 | 0.822 | 0.71 | 0.845 | 0.721 | 0.799 | 0.806 | 0.613 | 0.878 | 0.8 | 0.762 | 1.03 | 0.689 | 0.687 | 0.593 | 0.632 | 0.641 | 0.603
4 | NCI-H1734 | 0.887 | 0.803 | 0.765 | 0.884 | 0.814 | 0.485 | 0.462 | 0.574 | 0.465 | 0.422 | 1.04 | 0.965 | 0.942 | 0.935 | 0.999 | 0.393 | 0.334 | 0.392 | 0.344 | 0.343
5 | NCI-H1755 | 0.989 | 1 | 0.934 | 1.07 | 0.946 | 0.443 | 0.444 | 0.45 | 0.426 | 0.344 | 1.02 | 0.99 | 0.897 | 0.956 | 1.02 | 0.486 | 0.415 | 0.446 | 0.462 | 0.493
6 | NCI-H1792 | 0.627 | 0.543 | 0.484 | 0.463 | 0.405 | 0.822 | – | 0.723 | 0.81 | 0.702 | 0.963 | 0.915 | 0.912 | 0.94 | 0.968 | 0.789 | – | 0.678 | 0.686 | 0.66
7 | NCI-H1915 | 1.1 | – | 1.16 | 1.1 | 1 | 0.359 | 0.373 | 0.323 | 0.298 | 0.345 | 0.977 | – | 0.685 | 0.964 | 0.915 | 0.506 | – | 0.576 | 0.559 | 0.568
8 | NCI-H1975 | 0.972 | 0.93 | 0.91 | 0.897 | 0.893 | 0.363 | 0.369 | 0.376 | 0.374 | 0.3 | 0.363 | 0.384 | 0.428 | 0.375 | 0.407 | 0.473 | 0.424 | 0.675 | 0.717 | 0.567
9 | NCI-H1993 | 0.726 | 0.763 | 0.673 | 0.75 | 0.73 | 0.602 | 0.573 | 0.525 | 0.506 | 0.503 | 1.21 | 1.07 | 0.921 | 1.11 | 0.875 | 0.718 | 0.596 | 0.737 | – | 0.648
10 | NCI-H2009 | 1.15 | 1.14 | 1.22 | 1.22 | 1.05 | 0.288 | 0.287 | 0.304 | 0.278 | 0.235 | 1.06 | 1.01 | 0.987 | 0.97 | 0.875 | 0.224 | 0.171 | 0.197 | 0.225 | 0.172
11 | NCI-H2023 | 0.73 | 0.606 | 0.658 | 0.756 | 0.577 | 0.707 | 0.489 | 0.671 | 0.593 | 0.343 | 1.17 | 1.01 | 0.938 | 1.16 | 0.858 | 0.346 | 0.32 | 0.359 | 0.419 | 0.328
12 | NCI-H2085 | 0.894 | 0.941 | 0.928 | 0.862 | 0.87 | 0.228 | 0.227 | 0.258 | 0.249 | 0.246 | 1.13 | 1.02 | 1.04 | 1.05 | 1.03 | 0.457 | 0.471 | 0.484 | 0.438 | 0.427
13 | NCI-H2087 | 1.03 | 0.963 | 0.789 | 0.992 | 0.877 | 0.954 | 0.62 | 1.15 | 1.01 | 0.733 | 0.756 | 0.955 | 0.66 | 0.824 | 0.864 | 0.214 | 0.235 | 0.17 | 0.234 | 0.206
14 | NCI-H2126 | 0.781 | 0.759 | 0.679 | 0.645 | 0.673 | 0.66 | 0.554 | 0.62 | 0.592 | 0.46 | 1.15 | 1.1 | 1.18 | 1.16 | 1.13 | 0.382 | 0.383 | 0.363 | 0.388 | 0.386
15 | NCI-H2228 | 0.642 | 0.443 | 0.587 | 0.751 | 0.44 | 0.568 | 0.485 | 0.508 | 0.528 | 0.431 | 1.11 | 0.992 | 1.16 | 1.13 | 0.907 | 0.613 | – | 1.04 | 0.752 | 0.567
16 | NCI-H2347 | 0.963 | 1 | 0.944 | 0.829 | 0.893 | 0.295 | 0.327 | 0.317 | 0.346 | 0.318 | 1.09 | 0.919 | 0.932 | 1.14 | 1.07 | 0.452 | 0.462 | 0.415 | 0.388 | 0.387
17 | NCI-H2405 | 0.942 | 0.855 | 0.928 | 1.03 | 0.763 | 0.252 | 0.223 | 0.224 | 0.2 | 0.204 | 1.03 | 1.03 | 0.964 | 0.969 | 0.918 | 0.536 | 0.484 | 0.55 | 0.524 | 0.521
18 | NCI-H3122 | 1 | 1.03 | 0.999 | 0.982 | 1.04 | 0.828 | 0.869 | 0.802 | 0.846 | 0.914 | 0.957 | 1.03 | 1.05 | 0.985 | 1.1 | 0.195 | 0.238 | 0.172 | 0.195 | 0.176
19 | PC-3 [JPC-3] | 0.962 | 0.941 | 0.924 | 0.948 | 0.947 | 1.14 | 0.762 | 1.1 | 0.966 | 0.961 | 0.863 | 0.893 | 0.723 | 0.842 | 0.707 | 0.514 | 0.579 | 0.539 | 0.28 | 0.629
20 | PC-14 | 0.962 | 0.957 | 0.947 | 0.964 | 0.9 | 0.313 | 0.252 | 0.264 | 0.203 | 0.166 | 0.957 | 0.884 | 0.761 | 0.904 | 0.782 | 0.708 | 0.434 | 0.609 | 0.47 | 0.384
21 | RERF-LC-KJ | 0.84 | 0.895 | 0.863 | 0.795 | 0.73 | 0.928 | 0.771 | 0.92 | 0.827 | 0.634 | 1.19 | 0.968 | 1.11 | 1.07 | 0.983 | 1.14 | 1.04 | 1.13 | 1.09 | 0.964
22 | SK-LU-1 | 1.18 | 1.09 | 1.12 | 1.16 | 1.04 | 0.188 | 0.22 | 0.181 | 0.172 | 0.176 | 1.39 | 1.28 | 0.989 | 1.29 | 1.02 | 0.368 | 0.377 | 0.411 | 0.427 | 0.341
23 | SW 1573 | 0.928 | 0.824 | 0.883 | 0.985 | 0.821 | 0.553 | 0.488 | 0.627 | 0.402 | 0.417 | 0.978 | 1.08 | 0.965 | 1.2 | 0.55 | 0.445 | 0.355 | 0.378 | 0.374 | 0.3
